# pIC50: −log10 of the molar value.
# Tests used:
# [1] = test system: JJN-3; assay: Antiproliferative activity against human JJN-3 cells after 96 hrs by CellTiter-Glo luminescence assay; type: functional, cell-based; settings: JJN-3, 96 h
# [2] = biological target: T1, Mitogen-activated protein kinase kinase kinase 14 (Homo sapiens, UniProt Q99558); assay: Inhibition of MAP3K14 in human L363 assessed as decrease in IKKalpha phosphorylation level after 2 hrs by sandwich immuno assay
# [3] = test system: KMS-12-BM; assay: Antiproliferative activity against human KMS-12-BM cells after 96 hrs by CellTiter-Glo luminescence assay; type: functional, cell-based
# [4] = biological target: T1, Mitogen-activated protein kinase kinase kinase 14; assay: Inhibition of recombinant human GST-tagged MAP3K14 autophosphorylation after 1 hr by Alpha screen assay
# T1 sequence (Q99558 whole entry): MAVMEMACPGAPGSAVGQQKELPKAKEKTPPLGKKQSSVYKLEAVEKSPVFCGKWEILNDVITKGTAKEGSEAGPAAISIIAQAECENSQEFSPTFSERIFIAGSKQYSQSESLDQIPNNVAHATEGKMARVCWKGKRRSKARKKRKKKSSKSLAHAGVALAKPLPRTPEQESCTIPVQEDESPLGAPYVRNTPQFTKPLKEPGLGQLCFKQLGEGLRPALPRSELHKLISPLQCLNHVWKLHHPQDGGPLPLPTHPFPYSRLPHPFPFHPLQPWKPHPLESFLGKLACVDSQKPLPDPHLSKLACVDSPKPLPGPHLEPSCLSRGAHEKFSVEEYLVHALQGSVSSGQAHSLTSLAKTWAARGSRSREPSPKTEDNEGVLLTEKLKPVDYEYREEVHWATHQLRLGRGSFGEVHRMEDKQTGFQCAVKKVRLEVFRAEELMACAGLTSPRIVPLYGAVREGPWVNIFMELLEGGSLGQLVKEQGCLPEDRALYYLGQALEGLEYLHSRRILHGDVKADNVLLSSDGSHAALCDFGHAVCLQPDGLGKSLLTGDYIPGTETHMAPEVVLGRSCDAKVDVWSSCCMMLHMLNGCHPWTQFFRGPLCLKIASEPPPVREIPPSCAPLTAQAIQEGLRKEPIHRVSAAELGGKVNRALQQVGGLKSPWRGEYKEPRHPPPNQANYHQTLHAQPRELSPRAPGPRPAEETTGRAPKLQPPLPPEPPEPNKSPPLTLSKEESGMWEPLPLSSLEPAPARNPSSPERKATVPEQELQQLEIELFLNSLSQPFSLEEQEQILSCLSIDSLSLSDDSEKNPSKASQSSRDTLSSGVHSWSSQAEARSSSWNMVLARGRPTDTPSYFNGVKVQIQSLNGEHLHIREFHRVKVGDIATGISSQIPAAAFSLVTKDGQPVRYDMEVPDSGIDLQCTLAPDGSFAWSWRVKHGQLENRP
Structure (SMILES),pIC50 [2],pIC50 [4],pIC50 [1],pIC50 [3]
CNC(=O)c1ccc(OC(C)C)c(Nc2nccc(-c3cc(C#N)c4c(c3)[C@@](C)(CO)CN4)n2)c1,7.71,,6.54,< 5.00
CC(C)Oc1ccc(CO)cc1Nc1nccc(-c2cc(C#N)c3c(c2)[C@@](C)(CO)CN3)n1,8.18,,6.85,< 5.00
CN1CC(F)C(Oc2ccc(C#N)cc2Nc2nccc(-c3cc(C#N)c4c(c3)[C@@](C)(CO)CN4)n2)C1 (some centres not stated),7.67,,6.13,< 5.00
C[C@]1(CO)CNc2c(C#N)cc(-c3ccnc(Nc4cc(C#N)ccc4OC4CC4)n3)cc21,7.94,,7.17,5.91
CC(C)(O)COc1ccc(C#N)cc1Nc1nccc(-c2cc(C#N)c3c(c2)[C@@](C)(CO)CN3)n1,7.59,,6.86,5.31
Cc1cc(F)c(CO)cc1Nc1nccc(-c2cc(C#N)c3c(c2)[C@@](C)(CO)CN3)n1,8.11,,6.57,< 5.00

# These reach a higher pIC50 [2]. Values come first.
pIC50 [2],pIC50 [4],Structure (SMILES),pIC50 [1],pIC50 [3]
8.20,,C[C@]1(CO)CNc2c(C#N)cc(-c3ccnc(Nc4cc(C#N)ccc4CO)n3)cc21,6.62,< 5.00
8.22,,Cc1cc(F)c(C#N)cc1Nc1nccc(-c2cc(C#N)c3c(c2)[C@@](C)(CO)CN3)n1,6.21,< 5.00
8.66,,[2H]C([2H])(O)c1ccc(C)c(Nc2nccc(-c3cc(C#N)c4c(c3)[C@@](C)(CO)CN4)n2)c1,7.04,< 5.00
8.66,8.74,CNC(=O)c1ccc(C)c(Nc2nccc(-c3cc(C#N)c4c(c3)[C@@](C)(CO)CN4)n2)c1,7.07,5.29
8.89,,Cc1cc(CCN2CCOCC2)c(C#N)cc1Nc1nccc(-c2cc(C#N)c3c(c2)[C@@](C)(CO)CN3)n1,7.54,< 5.00
8.92,,Cc1ccc(C#N)cc1Nc1ncc(F)c(-c2cc(C#N)c3c(c2)[C@@](C)(CO)CN3)n1,6.52,< 5.00
